Results taken from patent publication US20210009542A1 (Calico Life Sciences LLC, priority 2018, published 2021).
Where two headings read alike, the source gives them in different places.

Tests used:
[1] = test system: Pan T cells isolated from C57BL6 splenocytes; test: T cell activation assay (flow cytometry, CD25/CD69 on CD8 T cells); format: cell-based, mouse; conditions: for % CD25 within CD8+ / % CD69 within CD8+ / CD25 MFI / CD69 MFI: 30 μM compound, 2 days; for T cell activation and T cell function: with TCR stimulation
Experimental: (§1) Pan T cells were isolated from C57BL6 splenocytes using a MACS Pan T cell isolation kit II (Miltenyi Biotec, Auburn, Calif.) according to the manufacturer's instructions. Isolated T cells (200,000 cells/well in a 96 well flat-bottom plate) were cultured in RPMI 1640 supplemented with 10% FBS, […] 2-mercatoethanol, 100 U/mL penicillin, and 100 μg/mL streptomycin, and incubated with the indicated concentration of compound or DMSO in duplicates. After 1 hour, mouse T cell activator CD3/CD28 Dynabeads (ThermoFisher Scientific, Waltham, Mass.) were added at a 1:5 beads to cells ratio to stimulate the T cells for 2 or 3 days as outlined below. T cells with or without compound were incubated in the absence of T cell activator beads (media only) as control.
After 2 days of stimulation, activation status of T cells was assessed by flow cytometry. T cells were first subjected to Zombie Violet™ Fixable Viability dye (BioLegend, San Diego, Calif.) for dead cell exclusion, washed and then stained with BUV805 labeled anti-CD8, APC-R700 labeled anti-CD25 (both from BD Biosciences, San Jose, Calif.) and PE labeled anti-CD69 (BioLegend, San Diego, Calif.) antibodies. After staining, cells were fixed with 2% paraformaldehyde and acquired on a BD LSRFortessa™ X-20 flow cytometer (BD Biosciences, San Jose, Calif.) using BD FACSDiva™ software. Data was analyzed using FlowJo V10 (Flow Jo LLC, Ashland, Oreg.). Dead cells were excluded and frequencies of activated CD8 T cells was reported as the frequency of CD25+ or CD69+ cells within the CD8+ population. The expression level of CD25 and CD69 indicates the activation status of cells on a per cell basis and was evaluated by the mean fluorescence intensities (MFI) of CD25 and CD69.

[2] = test system: Pan T cells isolated from C57BL6 splenocytes; test: T cell function assay (IFNγ and TNFα in supernatants, MSD V-plex); format: cell-based, mouse; conditions: 30 μM compound, 3 days, supernatant
Experimental: as §1
After 3 days of stimulation, supernatants were collected and IFNγ and TNFα in supernatants were assessed using an MSD V-plex assay (Meso Scale Discovery, Rockville, Md.).

[3] = test system: B16F10 mouse melanoma cells; test: B16F10 IFNγ-induced cellular growth inhibition assay; format: cell-based; conditions: Mus musculus, B16-F10, 33 μM compound
How it was run: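 Live-cell imaging of confluence every 6 h over 5 days at 37 °C tracked growth of mouse B16F10 melanoma cells seeded overnight at 500/well. Semi-log compound series (final 100–0.001 μM, 0.1% DMSO) ran in both arms, ±IFNγ at 0.5 ng/mL final; inhibition taken relative to DMSO plus IFNγ when IFNγ-free DMSO wells passed 95% confluence.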

[4] = biological target: T1, His tagged PTPN2 (TC45) protein (Homo sapiens, UniProt P17706); test: Mobility shift assay (MSA) for potency of PTPN2 inhibitors; format: biochemical; conditions: read-out: PTPN2 MSA IC50
T1 construct: made in house
T1 sequence (P17706 with tags, fused parts or gaps isoform P17706-2): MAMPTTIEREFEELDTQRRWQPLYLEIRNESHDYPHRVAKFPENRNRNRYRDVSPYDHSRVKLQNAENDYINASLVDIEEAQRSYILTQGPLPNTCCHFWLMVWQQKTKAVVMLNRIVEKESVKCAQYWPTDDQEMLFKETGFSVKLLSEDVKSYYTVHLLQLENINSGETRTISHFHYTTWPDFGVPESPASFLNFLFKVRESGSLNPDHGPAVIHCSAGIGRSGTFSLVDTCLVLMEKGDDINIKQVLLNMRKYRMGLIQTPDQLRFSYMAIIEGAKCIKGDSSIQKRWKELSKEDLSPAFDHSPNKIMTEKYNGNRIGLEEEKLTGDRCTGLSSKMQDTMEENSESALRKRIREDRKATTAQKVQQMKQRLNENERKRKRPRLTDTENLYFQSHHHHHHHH
How it was run: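 IC50 values were derived from % inhibition of substrate conversion, measured by microfluidic mobility shift (ex 488/em 530) after quenching. The fluorescent phosphotyrosine insulin-receptor peptide ([…]) reacted for 10 min at room temperature with 0.5 nM His-tagged TC45 PTPN2 that had been preincubated 10 min with compound (12 points, 1:3). Buffer was HEPES pH 7.5 with EGTA, EDTA, Tween 20 and DTT.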

[5] = biological target: T2, His tagged full-length PTP1B protein (Homo sapiens, UniProt P18031); test: Mobility shift assay (MSA) for potency of PTP1B inhibitors; format: biochemical
T2 construct: made in house
T2 sequence (P18031 with tags, fused parts or gaps): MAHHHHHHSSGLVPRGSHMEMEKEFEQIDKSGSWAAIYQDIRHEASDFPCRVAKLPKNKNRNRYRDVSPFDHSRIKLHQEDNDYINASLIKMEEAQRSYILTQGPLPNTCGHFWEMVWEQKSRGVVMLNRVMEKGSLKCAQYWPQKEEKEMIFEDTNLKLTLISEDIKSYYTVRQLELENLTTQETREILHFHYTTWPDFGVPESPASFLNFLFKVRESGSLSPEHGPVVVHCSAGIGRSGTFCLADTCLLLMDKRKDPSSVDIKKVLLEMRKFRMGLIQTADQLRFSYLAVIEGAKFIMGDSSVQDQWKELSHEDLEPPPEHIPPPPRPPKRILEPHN
Experimental: The enzymatic assay used to determine activity is a mobility shift assay using a LabChip EZ Reader by Caliper Life Sciences. The enzymatic reaction was carried out in assay buffer (50 mM HEPES pH 7.5, 1 mM EGTA, 10 mM EDTA, 0.01% Tween® 20, and 2 mM DTT). […] The enzyme (at 0.5 nM) was incubated with compound for 10 minutes at room temperature. […] The % inhibition was then used to calculate the IC50 values.

[6] = anti-CD3/anti-CD28 Dynabeads (1:5 beads:cells)
[7] = +0.5 ng/mL IFNγ, relative to DMSO control, read-out: % B16F10 growth inhibition (+0.5 ng/mL IFNγ) @ 33 μM
[8] = no IFNγ, read-out: % B16F10 growth inhibition (no IFNγ) @ 33 μM

`O=C1CN(c2c(O)cc3ccc(C4=CCN(S(=O)(=O)C5CC5)C4)cc3c2F)S(=O)(=O)N1` [Compound 113, 5-{7-[1-(cyclopropanesulfonyl)-2,5-dihydro-1H-pyrrol-3-yl]-1-fluoro-3-hydroxynaphthalen-2-yl}-1λ^6,2,5-thiadiazolidine-1,1,3-trione] was tested, and the “% CD25 within CD8+” value [1, 6] was 44.55%, the “% CD69 within CD8+” value [1, 6] was 73.95% and the “CD25 MFI” value [1, 6] was 1265. The “CD69 MFI” value [1, 6] was 1891, the “% CD25 within CD8+” value ([1]; no TCR stimulation) was 0.49% and the “% CD69 within CD8+” value ([1]; no TCR stimulation) was 0.24%. For the same molecule, the “CD25 MFI” value ([1]; no TCR stimulation) was 51.7, the “CD69 MFI” value ([1]; no TCR stimulation) was 28.8 and the “T cell activation and T cell function” value [1] was “increased both T cell activation and T cell function”. For the same molecule, the “IFNγ” value [2, 6] was 356 ng/mL, the “TNFα” value [2, 6] was 208 ng/mL and the “IFNγ” value ([2]; no TCR stimulation) was 1.2 ng/mL. The “TNFα” value ([2]; no TCR stimulation) was 1.5 ng/mL, the inhibition at 33 µM [3, 7] was over 90% and the inhibition at 33 µM [3, 8] was under 25%. It also gave an IC50 [4] of under 1 nM.
With `O=C1CN(c2c(O)cc3ccc(C4CCOC4)cc3c2F)S(=O)(=O)N1` (stereo not shown) [Compound 255, 5-[1-fluoro-3-hydroxy-7-(oxolan-3-yl)naphthalen-2-yl]-1λ^6,2,5-thiadiazolidine-1,1,3-trione] the IC50 [5] was over 100 nM, the inhibition at 33 µM [3, 7] was 60 to 90% and the inhibition at 33 µM [3, 8] was under 25%. The IC50 [4] was 1 to 10 nM.
`O=C1CN(c2c(O)cc3ccc(CC4CCCN(S(=O)(=O)C5CC5)C4)cc3c2F)S(=O)(=O)N1` (stereo not shown) [Compound 259, 5-(7-{[1-(cyclopropanesulfonyl)piperidin-3-yl]methyl}-1-fluoro-3-hydroxynaphthalen-2-yl)-1λ^6,2,5-thiadiazolidine-1,1,3-trione] gave an IC50 [5] of 1 to 10 nM, an inhibition at 33 µM [3, 7] of under 25% and an inhibition at 33 µM [3, 8] of under 25%. It also gave an IC50 [4] of 1 to 10 nM.
For `O=C1CN(c2c(O)cc3ccc(OC(F)F)cc3c2F)S(=O)(=O)N1` [Compound 260, 5-[7-(difluoromethoxy)-1-fluoro-3-hydroxynaphthalen-2-yl]-1λ^6,2,5-thiadiazolidine-1,1,3-trione], the “% CD25 within CD8+” value [1, 6] was 39.60%, the “% CD69 within CD8+” value [1, 6] was 61.65% and the “CD25 MFI” value [1, 6] was 1085. For the same molecule, the “CD69 MFI” value [1, 6] was 464.5, the “% CD25 within CD8+” value ([1]; no TCR stimulation) was 0.29% and the “% CD69 within CD8+” value ([1]; no TCR stimulation) was 0.17%. The “CD25 MFI” value ([1]; no TCR stimulation) was 28.3, the “CD69 MFI” value ([1]; no TCR stimulation) was 10.2 and the “T cell activation and T cell function” value [1] was “increased both T cell activation and T cell function”. For the same molecule, the “IFNγ” value [2, 6] was 752 ng/mL, the “TNFα” value [2, 6] was 207 ng/mL and the “IFNγ” value ([2]; no TCR stimulation) was 3.8 ng/mL. For the same molecule, the “TNFα” value ([2]; no TCR stimulation) was 2.1 ng/mL, the inhibition at 33 µM [3, 7] was 25 to 59% and the inhibition at 33 µM [3, 8] was under 25%. It also gave an IC50 [4] of 1 to 10 nM.
With `O=C1CN(c2c(O)cc3ccc(CC4CCN(S(=O)(=O)C5CC5)C4)cc3c2F)S(=O)(=O)N1` (stereo not shown) [Compound 261, 5-(7-{[1-(cyclopropanesulfonyl)pyrrolidin-3-yl]methyl}-1-fluoro-3-hydroxynaphthalen-2-yl)-1λ^6,2,5-thiadiazolidine-1,1,3-trione] the IC50 [5] was 1 to 10 nM, the inhibition at 33 µM [3, 7] was 25 to 59% and the inhibition at 33 µM [3, 8] was under 25%. It also gave an IC50 [4] of 1 to 10 nM.
Molecule `O=C1CN(c2c(O)cc3ccc(C4=CCOC4)cc3c2F)S(=O)(=O)N1` [Compound 263, 5-[7-(2,5-dihydrofuran-3-yl)-1-fluoro-3-hydroxynaphthalen-2-yl]-1λ^6,2,5-thiadiazolidine-1,1,3-trione] has an IC50 [5] of over 100 nM, an inhibition at 33 µM [3, 7] of 60 to 90% and an inhibition at 33 µM [3, 8] of under 25%. For the same molecule, the IC50 [4] was under 1 nM.
Molecule `O=C1CN(c2c(O)cc3ccc(OCC4CCCOC4)cc3c2F)S(=O)(=O)N1` (stereo not shown) [Compound 271, 5-{1-fluoro-3-hydroxy-7-[(oxan-3-yl)methoxy]naphthalen-2-yl}-1λ^6,2,5-thiadiazolidine-1,1,3-trione] has an IC50 [5] of over 100 nM, an inhibition at 33 µM [3, 7] of 60 to 90% and an inhibition at 33 µM [3, 8] of under 25%. For the same molecule, the IC50 [4] was under 1 nM.
`O=C1CN(c2c(O)cc3ccc(OCCNS(=O)(=O)C4COC4)cc3c2F)S(=O)(=O)N1` [Compound 298, N-(2-{[8-fluoro-6-hydroxy-7-(1,1,4-trioxo-1λ^6,2,5-thiadiazolidin-2-yl)naphthalen-2-yl]oxy}ethyl)oxetane-3-sulfonamide] was tested, and the IC50 [5] was under 1 nM, the inhibition at 33 µM [3, 7] was over 90% and the inhibition at 33 µM [3, 8] was under 25%. For the same molecule, the IC50 [4] was under 1 nM.
For `O=C1CN(c2c(O)cc3ccc(NC4CCN(S(=O)(=O)C5CC5)C4)cc3c2F)S(=O)(=O)N1` (stereo not shown) [Compound 306, 5-(7-{[1-(cyclopropanesulfonyl)pyrrolidin-3-yl]amino}-1-fluoro-3-hydroxynaphthalen-2-yl)-1λ^6,2,5-thiadiazolidine-1,1,3-trione], the IC50 [5] was 10 to 100 nM, the inhibition at 33 µM [3, 7] was 60 to 90% and the inhibition at 33 µM [3, 8] was under 25%. The IC50 [4] was 1 to 10 nM.
In the case of `CS(=O)(=O)N1CCC(F)(COc2ccc3cc(O)c(N4CC(=O)NS4(=O)=O)c(F)c3c2)C1` (stereo not shown) [Compound 307, 5-(1-fluoro-7-{[3-fluoro-1-(methanesulfonyl)pyrrolidin-3-yl]methoxy}-3-hydroxynaphthalen-2-yl)-1λ^6,2,5-thiadiazolidine-1,1,3-trione], the IC50 [5] is reported as 1 to 10 nM, the inhibition at 33 µM [3, 7] is reported as 25 to 59% and the inhibition at 33 µM [3, 8] is reported as under 25%. The IC50 [4] was 1 to 10 nM.
